Experiment [1] has as its target Beta Lactamase (Pseudomonas aeruginosa, UniProt Q932Y6). The experiment in a line: beta-lactamase reporter inhibitor potency, dose response, artefact control for TLR9-MyD88 binding inhibitor project, BLA reporter cells, FRET fluorescence (AID 588341).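 Further: cell based assay in CHO-K1 cells stably expressing beta-lactamase.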 It is filed as cell-based.
Experiment [2] can be described thus: THP-1 cell cytotoxicity, dose response, cytotoxicity control for non-replicating M. tuberculosis project (AID 489025). It is filed as functional.
Experiment [3] in a line: cells. It is filed as functional, cell-based.
Experiment [4] in a line: cytotoxicity in HPDE-C7 cells, cell-based, fluorescence, HTS (AID 430). It is filed as functional. The note with it: Homo sapiens.
The target of experiment [5] is T1, Replicative DNA helicase DnaB (Mycobacterium tuberculosis, UniProt P9WMR3).
T1 sequence (P9WMR3 whole entry): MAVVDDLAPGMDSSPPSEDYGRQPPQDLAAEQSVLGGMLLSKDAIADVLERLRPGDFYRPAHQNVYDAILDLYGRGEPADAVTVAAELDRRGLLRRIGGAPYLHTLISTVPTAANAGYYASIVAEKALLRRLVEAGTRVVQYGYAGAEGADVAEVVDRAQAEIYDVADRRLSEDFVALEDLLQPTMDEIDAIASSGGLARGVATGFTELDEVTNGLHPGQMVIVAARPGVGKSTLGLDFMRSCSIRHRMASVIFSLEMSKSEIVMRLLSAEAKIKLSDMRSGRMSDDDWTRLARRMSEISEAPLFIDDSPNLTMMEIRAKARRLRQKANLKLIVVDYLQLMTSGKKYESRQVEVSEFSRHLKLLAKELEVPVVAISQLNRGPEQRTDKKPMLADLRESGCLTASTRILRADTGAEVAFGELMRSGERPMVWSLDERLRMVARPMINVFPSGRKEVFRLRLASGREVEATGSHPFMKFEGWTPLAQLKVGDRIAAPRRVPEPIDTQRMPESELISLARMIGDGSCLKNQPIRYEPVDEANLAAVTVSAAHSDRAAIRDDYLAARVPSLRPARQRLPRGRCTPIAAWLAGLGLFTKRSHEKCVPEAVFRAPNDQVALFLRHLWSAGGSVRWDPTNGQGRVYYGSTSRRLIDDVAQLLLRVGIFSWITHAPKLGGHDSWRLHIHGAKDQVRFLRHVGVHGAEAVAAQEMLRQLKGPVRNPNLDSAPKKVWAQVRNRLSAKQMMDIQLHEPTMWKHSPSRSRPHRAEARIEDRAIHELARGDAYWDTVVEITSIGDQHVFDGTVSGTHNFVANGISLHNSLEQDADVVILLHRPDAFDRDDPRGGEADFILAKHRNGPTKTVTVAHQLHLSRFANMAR
The experiment in a line: DnaB intein splicing inhibitors, dose response, biochemical, cell-free fluorescence (AID 449749). It is filed as functional.

For experiment [6], the target named is T2, Luciferin 4-monooxygenase (Photinus pyralis, UniProt P08659). As to the kind of experiment: Counter Screen for Luciferase-based Assay Positives. [Related pubchem assays: 620, 618, 411 ]. For orientation: A counterscreen serves to expose hits that act by an unwanted route or on another target.
Experiment [7] is described as follows: cells. The class given is functional.
Experiment [8] concerns the target T2, Luciferin 4-monooxygenase. The experiment in a line: firefly luciferase enzyme inhibitors, dose response, biochemical, luminescence (AID 1891).
Experiment [9] can be described thus: cells. It is filed as functional, cell-based. The source holds these as a separate data set.
Experiment [10] has as its target T3, Sphingosine 1-phosphate receptor 4 (Homo sapiens, UniProt O95977). The experiment in a line: Late stage fluorescence dose response cell-based screening assay for antagonists of the Sphingosine 1-Phosphate Receptor 4 (S1P4). [Related pubchem assays: 1524 (Confirmation screen (S1P4 antagonists).), 1510 (Primary screen (S1P4 antagonists).), 1853 (Summary AID (S1P4 antagonists).), 1692 (Dose response screen (S1P4 antagonists).)]. The class given is functional.

Experiment [11] is described as follows: cytotoxicity in KRAS-transformed pancreatic duct cells, primary screen, cell-based, fluorescence, HTS (AID 431). It is filed as functional. The note with it: Homo sapiens.
Experiment [12] concerns the target T3, Sphingosine 1-phosphate receptor 4. The experiment in a line: Fluorescence dose response cell-based high throughput screening assay for antagonists of the Sphingosine 1-Phosphate Receptor 4 (S1P4). [Related pubchem assays: 1524 (Confirmation in triplicates.), 1510 (Primary screen.)]. It is filed as functional.
Experiment [13] addresses T4, Protein RecA (Mycobacterium tuberculosis, UniProt P9WHJ3).
T4 sequence (P9WHJ3 whole entry): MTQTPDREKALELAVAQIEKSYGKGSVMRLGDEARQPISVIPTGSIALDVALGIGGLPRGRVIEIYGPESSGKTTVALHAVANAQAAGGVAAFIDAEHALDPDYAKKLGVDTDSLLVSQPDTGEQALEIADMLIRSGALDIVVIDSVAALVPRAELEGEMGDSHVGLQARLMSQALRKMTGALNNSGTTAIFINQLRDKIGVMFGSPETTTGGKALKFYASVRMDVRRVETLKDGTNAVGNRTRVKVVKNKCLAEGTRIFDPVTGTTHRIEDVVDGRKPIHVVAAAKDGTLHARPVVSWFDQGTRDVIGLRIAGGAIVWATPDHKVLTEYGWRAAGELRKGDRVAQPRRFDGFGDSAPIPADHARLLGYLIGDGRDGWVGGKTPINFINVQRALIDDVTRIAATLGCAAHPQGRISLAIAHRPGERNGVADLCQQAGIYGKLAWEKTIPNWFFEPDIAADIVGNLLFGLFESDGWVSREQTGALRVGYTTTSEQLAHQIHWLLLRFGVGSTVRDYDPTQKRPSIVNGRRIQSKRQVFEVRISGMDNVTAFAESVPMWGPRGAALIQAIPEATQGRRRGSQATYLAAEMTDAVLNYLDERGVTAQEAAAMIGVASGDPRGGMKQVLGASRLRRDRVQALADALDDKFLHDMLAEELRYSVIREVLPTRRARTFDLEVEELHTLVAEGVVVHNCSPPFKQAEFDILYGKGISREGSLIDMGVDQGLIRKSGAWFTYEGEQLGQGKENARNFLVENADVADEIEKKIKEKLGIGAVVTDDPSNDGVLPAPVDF
The experiment in a line: Fluorescence Cell-Free Homogeneous Dose Retest to Identify Inhibitors of RecA-Intein Splicing Activity. [Related pubchem assays (depositor defined):AID2097, AID2223, AID489010, AID492950]. The class given is functional.

Experiment [14] deals with Sphingosine 1-phosphate receptor 1 (Homo sapiens, UniProt P21453). The class given is functional.
A short description of experiment [15]: Luminescence Cell-Based Dose Confirmation HTS to Identify Inhibitors of Platelet Dense Granule Release. [Related pubchem assays: 1663 (Primary HTS), 1678 (Summary of Project)]. It is filed as functional.
Experiment [16] is described as follows: HepG2 cell cytotoxicity, dose response, cytotoxicity control for non-replicating M. tuberculosis project (AID 489018). As to conditions: Mycobacterium tuberculosis. The class given is functional.
For experiment [17], the system named is CHO. As to the kind of experiment: cytotoxicity in TLR9-MyD88 CHO cells, dose response, cytotoxicity control for TLR9-MyD88 binding inhibitor project, cell-based, luminescence (AID 588339).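 Further: CHO cells stably coexpressing TLR9 and MyD88 fusions from primary screen; compound exposure lasted 48 hours before viability readout.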 As to conditions: Cricetulus griseus. It is filed as functional, hamster.
Experiment [18] has as its system HT-1080. The experiment in a line: cytotoxicity in HT1080 fibrosarcoma cells, cell-based, fluorescence readout (AID 620). It is filed as functional. As to conditions: Homo sapiens.

The source made the active and inactive calls.

As usually defined, the IC50 is the point on the concentration scale where inhibition reaches its midpoint. For orientation: CC50 means the concentration that lowers cell viability or growth by half. A word on the EC50: it is the concentration needed to bring the measured effect to its halfway point. As a reminder, the AC50 is the midpoint of the concentration-response curve, whichever way the signal moves.

T3 sequence (O95977 whole entry): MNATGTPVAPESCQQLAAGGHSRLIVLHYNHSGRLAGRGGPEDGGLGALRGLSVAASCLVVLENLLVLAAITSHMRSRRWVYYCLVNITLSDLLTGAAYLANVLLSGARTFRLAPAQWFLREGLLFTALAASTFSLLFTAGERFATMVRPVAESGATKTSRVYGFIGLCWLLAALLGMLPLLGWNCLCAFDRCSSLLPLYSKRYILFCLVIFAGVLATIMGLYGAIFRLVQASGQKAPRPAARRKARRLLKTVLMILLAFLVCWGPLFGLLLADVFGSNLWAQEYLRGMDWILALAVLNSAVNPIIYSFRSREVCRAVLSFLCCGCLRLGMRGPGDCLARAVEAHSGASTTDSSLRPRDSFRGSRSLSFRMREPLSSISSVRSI
T2 sequence (P08659 whole entry): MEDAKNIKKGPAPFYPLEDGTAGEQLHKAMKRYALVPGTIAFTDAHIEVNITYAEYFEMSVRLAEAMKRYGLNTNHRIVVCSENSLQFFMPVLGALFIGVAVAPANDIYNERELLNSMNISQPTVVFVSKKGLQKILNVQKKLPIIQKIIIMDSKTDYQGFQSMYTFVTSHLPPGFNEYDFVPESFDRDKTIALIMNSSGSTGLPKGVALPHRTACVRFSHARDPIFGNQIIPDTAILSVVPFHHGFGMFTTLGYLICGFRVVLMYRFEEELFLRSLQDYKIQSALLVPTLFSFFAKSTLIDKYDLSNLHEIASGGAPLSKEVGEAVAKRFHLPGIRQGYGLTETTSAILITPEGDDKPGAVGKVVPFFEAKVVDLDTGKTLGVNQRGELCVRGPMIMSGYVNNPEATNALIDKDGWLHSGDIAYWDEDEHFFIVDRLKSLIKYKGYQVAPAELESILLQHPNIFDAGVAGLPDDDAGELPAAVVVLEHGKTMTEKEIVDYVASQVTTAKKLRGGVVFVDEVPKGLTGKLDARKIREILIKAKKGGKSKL
Sequence of Beta Lactamase (Q932Y6 whole entry): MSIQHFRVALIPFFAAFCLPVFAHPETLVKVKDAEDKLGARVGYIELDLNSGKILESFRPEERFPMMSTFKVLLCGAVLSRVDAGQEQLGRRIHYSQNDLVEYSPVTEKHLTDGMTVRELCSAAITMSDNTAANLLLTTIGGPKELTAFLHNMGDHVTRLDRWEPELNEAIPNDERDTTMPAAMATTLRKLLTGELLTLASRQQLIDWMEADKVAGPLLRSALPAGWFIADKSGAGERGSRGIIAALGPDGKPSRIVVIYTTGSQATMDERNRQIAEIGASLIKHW
Sequence of Sphingosine 1-phosphate receptor 1 (P21453 whole entry): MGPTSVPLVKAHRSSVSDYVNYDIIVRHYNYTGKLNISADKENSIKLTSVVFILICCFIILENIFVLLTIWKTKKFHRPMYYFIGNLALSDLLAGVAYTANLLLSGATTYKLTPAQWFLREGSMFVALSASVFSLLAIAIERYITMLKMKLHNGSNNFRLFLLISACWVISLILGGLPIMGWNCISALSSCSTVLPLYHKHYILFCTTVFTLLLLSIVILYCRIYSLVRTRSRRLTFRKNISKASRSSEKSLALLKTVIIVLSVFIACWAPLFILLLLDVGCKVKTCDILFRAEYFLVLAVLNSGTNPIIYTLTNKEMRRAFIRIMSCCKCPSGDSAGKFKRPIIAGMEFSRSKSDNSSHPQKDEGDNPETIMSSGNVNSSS

`CCOC(=O)CCS(=O)(=O)c1nc(-c2ccccc2)cc(C(F)(F)F)n1`: the IC50 is 28.2 µM (inactive) in [1]; 2.7 µM (active) in experiment [7]; 3.58 µM (not active) in experiment [10]; 0.843 µM (active) in experiment [12]; 15.5 µM (not active) in experiment [14]; 3.49 µM (active) in experiment [17]. For the same compound, the CC50 is 19.9 µM (active) in experiment [2] and 16.2 µM (active) in experiment [16]. Also, the EC50 was 43.4 µM (active) in [3]; 4.94 µM (active) in experiment [4]; < 0.2 µM (active) in experiment [6]; > 112 µM (not active) in experiment [8]; > 350 µM (not active) in [9]; 4.4 µM (active) in experiment [11]. In addition, the values for the EC50 in [13], in experiment [15] and in [18] were 3.23 µM (active), 14.1 µM (active) and 14 µM (active), respectively. Also, the AC50 in [5] was 4.45 µM (active).

(Values after ChEMBL document CHEMBL1201862, “PubChem BioAssay data set” (2004).)
